Laboratory results: patent US10280166B2, “2-(1H-indazol-3-yl)-3H-imidazo[4,5-B]pyridine and therapeutic uses thereof” (Samumed, LLC, priority 2014, dated 2019)
pEC50, pIC50: −log10 of the molar value.

Experiments:
[1] = system: primary human fibroblasts derived from IPF patients (LL29 cells); assay: Inhibition of fibrosis (αSMA) in TGF-β1 treated primary human fibroblasts from IPF patients; type: cell-based; conditions: Fibroblast, 96 h, TGF-β1 20 ng/mL, 4 days, % αSMA positive cells
Description: The above synthesized compounds were screened using primary human fibroblasts (derived from IPF patients) treated with TGF-β1 to determine their ability to inhibit the fibrotic process.
Primary human fibroblasts derived from IPF patients (LL29 cells) [^1Xiaoqiu Liu, et.al., “Fibrotic Lung Fibroblasts Show Blunted Inhibition by cAMP Due to Deficient cAMP Response Element-Binding Protein Phosphorylation”, Journal of Pharmacology and Experimental Therapeutics (2005), 315(2), 678-687; ^2Watts, K. L., et.al., “RhoA signaling modulates cyclin D1 expression in human lung fibroblasts; implications for idiopathic pulmonary fibrosis”, Respiratory Research (2006), 7(1), 88] were obtained from American Type Culture Collection (ATCC) and expanded in F12 medium supplemented with 15% Fetal Bovine Serum and Penicillin/Streptomycin.
Each compound was dissolved in DMSO as a 10 mM stock and used to prepare compound source plates. Serial dilution (1:2, 11-point dose-response curves from 10 μM to 1.87 nM) and compound transfer was performed using the ECHO 550 (Labcyte, Sunnyvale, Calif.) into 384-well clear bottom assay plates (Greiner Bio-One) with appropriate DMSO backfill for a final DMSO concentration of 0.1%. LL29 cells were plated at 1,500 cells/well in 80 μl/well F12 medium supplemented with 1% Fetal Bovine Serum. One hour after addition of the cells, TGF-β1 (Peprotech; 20 ng/mL) was added to the plates to induce fibrosis (ref. 1 and 2 above). Wells treated with TGF-β1 and containing DMSO were used as controls. Cells were incubated at 37° C. and 5% CO2 for 4 days. Following incubation for 4 days, SYTOX green nucleic acid stain (Life Technologies [Thermo Fisher Scientific]) was added to the wells at a final concentration of 1 uM and incubated at room temperature for 30 min. Cells were then fixed using 4% formaldehyde (Electron Microscopy Sciences), washed 3 times with PBS followed by blocking and permeabilization using 3% Bovine Serum Albumin (BSA; Sigma) and 0.3% Triton X-100 (Sigma) in PBS. Cells were then stained with antibody specific to α-smooth muscle actin (αSMA; Abcam) (ref. 1 and 2 above) in 3% Bovine Serum Albumin (BSA; Sigma) and 0.3% Triton X-100 (Sigma) in PBS, and incubated overnight at 4° C. Cells were then washed 3 times with PBS, followed by incubation with Alexa Flor-647 conjugated secondary antibody (Life Technologies [Thermo Fisher Scientific]) and DAPI at room temperature for 1 hour. Cells were then washed 3 times with PBS and plates were sealed for imaging. αSMA staining was imaged by excitation at 630 nm and emission at 665 nm and quantified using the Compartmental Analysis program on the CellInsight CX5 (Thermo Scientific). Dead or apoptotic cells were excluded from analysis based on positive SYTOX green staining. % of total cells positive for αSMA were counted in each well and normalized to the average of 11 wells treated with TGF-β1 on the same plate using Dotmatics' Studies Software. The normalized averages (fold change over untreated) of 3 replicate wells for each compound concentration were used to create dose-responses curves and EC50 values were calculated using non-linear regression curve fit in the Dotmatics' Studies Software. The EC50 values are reported.

[2] = system: Wnt activity (SW480 colon carcinoma cells stably expressing the Sp5-Luc reporter gene); assay: Sp5-Luc reporter gene screening assay for Wnt activity in SW480 cells; type: cell-based; conditions: Homo sapiens, 42 h incubation, luminescence
Description: The screening assay for Wnt activity is described as follows. Reporter cell lines can be generated by stably transducing cancer cell lines (e.g., colon cancer) or primary cells (e.g., IEC-6 intestinal cells) with a lentiviral construct that includes a Wnt-responsive promoter driving expression of the firefly luciferase gene.
SW480 colon carcinoma cells were transduced with a lentiviral vector expressing luciferase with a human Sp5 promoter consisting of a sequence of eight TCF/LEF binding sites. SW480 cells stably expressing the Sp5-Luc reporter gene and a hygromycin resistance gene were selected by treatment with 150 μg/ml of hygromycin for 7 days. These stably transduced SW480 cells were expanded in cell culture and used for all further screening activities. For Sp5-Luc reporter gene assays, the cells were plated at 10,000 cells/well in 96-well plates with growth medium containing 10% fetal calf serum and incubated overnight at 37° C. and 5% CO2. Each compound was dissolved in DMSO as a 10 mM stock in standard j-vials and used to prepare compound source plates in dose-response format with 3-fold serial dilutions and a 10 mM top concentration. Compound transfer from serially diluted source plates to assay plates containing the cells was accomplished using a pintool (Multimek 96, Beckman equipped with V&P Scientific FP1S50H pins) based liquid handling protocol. This protocol used a slotted pin to transfer 50 nl of compound from a source plate well to an assay plate well containing 50 μl of cells in growth medium. […] Control wells received 50 nl of DMSO treatment for normalization and calculating IC50 values. The treated cells were incubated at 37° C. and 5% CO2 for an additional forty-two hours. Following incubation, the growth medium was removed and 50 μl of BrightGlo luminescence reagent (Promega) was added to each well of the 96-well assay plates. The plates were placed on an orbital shaker for 5 min and then luminescence was quantified on the Victor3 (Perkin Elmer) plate reader. Readings were normalized to DMSO only treated cells, and normalized activities were utilized for IC50 calculations using the dose-response log (inhibitor) vs. response—variable slope (four parameters) nonlinear regression feature available in GraphPad Prism 5.0 or 6.0.

Row | Structure (SMILES) | pEC50 [1] | pIC50 [2]
1 | Cc1ccncc1-c1ccc2[nH]nc(-c3nc4cccnc4[nH]3)c2c1 [Compound 239, 2-(5-(4-Methylpyridin-3-yl)-1H-indazol-3-yl)-3H-imidazo[4,5-b]pyridine] | 9.77 | 5.39
2 | Fc1cccc(-c2ccnc3[nH]c(-c4n[nH]c5ccc(-c6cncc(OC7CCCCC7)c6)cc45)nc23)c1 [Compound 1879, 2-(5-(5-(Cyclohexyloxy)pyridin-3-yl)-1H-indazol-3-yl)-7-(3-fluorophenyl)-3H-imidazo[4,5-b]pyridine] | 8.00 | < 5.00
3 | CN1CCN(c2ccnc3[nH]c(-c4n[nH]c5ccc(-c6cncc(NC(=O)C7CCCC7)c6)cc45)nc23)CC1 [Compound 229, N-(5-(3-(7-(4-Methylpiperazin-1-yl)-3H-imidazo[4,5-b]pyridin-2-yl)-1H-indazol-5-yl)pyridin-3-yl)cyclopentanecarboxamide] | 8.97 | 6.55
4 | FC1(F)CCN(Cc2cncc(-c3ccc4[nH]nc(-c5nc6c(-c7cccs7)ccnc6[nH]5)c4c3)c2)C1 [Compound 337, 2-(5-(5-((3,3-Difluoropyrrolidin-1-yl)methyl)pyridin-3-yl)-1H-indazol-3-yl)-7-(thiophen-2-yl)-3H-imidazo[4,5-b]pyridine] | 8.88 | 7.82
5 | Cc1cn(-c2ccnc3[nH]c(-c4n[nH]c5ccc(-c6cncc(NC(=O)C7CCC7)c6)cc45)nc23)cn1 [Compound 202, N-(5-(3-(7-(4-Methyl-1H-imidazol-1-yl)-3H-imidazo[4,5-b]pyridin-2-yl)-1H-indazol-5-yl)pyridin-3-yl)cyclobutanecarboxamide] | 10.74 | 8.33
6 | c1ccc(CNCc2cncc(-c3ccc4[nH]nc(-c5nc6c(-c7ccsc7)ccnc6[nH]5)c4c3)c2)cc1 [Compound 283, N-Benzyl-1-(5-(3-(7-(thiophen-3-yl)-3H-imidazo[4,5-b]pyridin-2-yl)-1H-indazol-5-yl)pyridin-3-yl)methanamine] | 9.22 | 6.86
7 | Fc1cccc(-c2ccnc3[nH]c(-c4n[nH]c5ccc(-c6cncc(OC7CCNCC7)c6)cc45)nc23)c1 [Compound 1880, 7-(3-Fluorophenyl)-2-(5-(5-(piperidin-4-yloxy)pyridin-3-yl)-1H-indazol-3-yl)-3H-imidazo[4,5-b]pyridine] | 9.38 | 5.92
8 | CS(=O)(=O)NCc1cc(F)cc(-c2ccnc3[nH]c(-c4n[nH]c5ccc(-c6cncc(CNCc7ccccc7)c6)cc45)nc23)c1 [Compound 439, N-(3-(2-(5-(5-((Benzylamino)methyl)pyridin-3-yl)-1H-indazol-3-yl)-3H-imidazo[4,5-b]pyridin-7-yl)-5-fluorobenzyl)methanesulfonamide] | 11.05 | 6.45
9 | O=C(Nc1cncc(-c2ccc3[nH]nc(-c4nc5c(-c6cccc(F)c6)ccnc5[nH]4)c3c2)c1)C1CC1 [Compound 19, N-(5-(3-(7-(3-Fluorophenyl)-3H-imidazo[4,5-b]pyridin-2-yl)-1H-indazol-5-yl)pyridin-3-yl)cyclopropanecarboxamide] | 10.37 | 9.00
10 | O=C(Nc1cncc(-c2ccc3[nH]nc(-c4nc5c(-c6ccccc6F)ccnc5[nH]4)c3c2)c1)C1CC1 [Compound 71, N-(5-(3-(7-(2-Fluorophenyl)-3H-imidazo[4,5-b]pyridin-2-yl)-1H-indazol-5-yl)pyridin-3-yl)cyclopropanecarboxamide] | 8.00 | 7.95
11 | O=C(Nc1cncc(-c2ccc3[nH]nc(-c4nc5c(-c6ccsc6)ccnc5[nH]4)c3c2)c1)C1CC1 [Compound 279, N-(5-(3-(7-(Thiophen-3-yl)-3H-imidazo[4,5-b]pyridin-2-yl)-1H-indazol-5-yl)pyridin-3-yl)cyclopropanecarboxamide] | 9.51 | 8.28
12 | CN(C)c1cncc(-c2ccc3[nH]nc(-c4nc5c(-c6ccccc6F)ccnc5[nH]4)c3c2)c1 [Compound 59, 5-(3-(7-(2-Fluorophenyl)-3H-imidazo[4,5-b]pyridin-2-yl)-1H-indazol-5-yl)-N,N-dimethylpyridin-3-amine] | 11.05 | 7.50
13 | Fc1cccc(-c2ccnc3[nH]c(-c4n[nH]c5ccc(C6CCNCC6)cc45)nc23)c1 [Compound 1873, 7-(3-Fluorophenyl)-2-(5-(piperidin-4-yl)-1H-indazol-3-yl)-3H-imidazo[4,5-b]pyridine] | 10.43 | 5.49
14 | CC(C)C(=O)Nc1cncc(-c2ccc3[nH]nc(-c4nc5c(-c6ccoc6)ccnc5[nH]4)c3c2)c1 [Compound 295, N-(5-(3-(7-(Furan-3-yl)-3H-imidazo[4,5-b]pyridin-2-yl)-1H-indazol-5-yl)pyridin-3-yl)isobutyramide] | 9.39 | 8.29
15 | CN(C)CCOc1cncc(-c2ccc3[nH]nc(-c4nc5c(-c6cccc(F)c6)ccnc5[nH]4)c3c2)c1 [Compound 1883, 2-((5-(3-(7-(3-Fluorophenyl)-3H-imidazo[4,5-b]pyridin-2-yl)-1H-indazol-5-yl)pyridin-3-yl)oxy)-N,N-dimethylethanamine] | 10.02 | 
16 | CCNCc1cncc(-c2ccc3[nH]nc(-c4nc5c(-c6ccccn6)ccnc5[nH]4)c3c2)c1 [Compound 136, N-((5-(3-(7-(Pyridin-2-yl)-3H-imidazo[4,5-b]pyridin-2-yl)-1H-indazol-5-yl)pyridin-3-yl)methyl)ethanamine] | 8.75 | 5.81
17 | CC(C)C(=O)Nc1cncc(-c2ccc3[nH]nc(-c4nc5c(N6CCN(C)CC6)ccnc5[nH]4)c3c2)c1 [Compound 217, N-(5-(3-(7-(4-Methylpiperazin-1-yl)-3H-imidazo[4,5-b]pyridin-2-yl)-1H-indazol-5-yl)pyridin-3-yl)isobutyramide] | 8.55 | 6.76
18 | CC(C)CC(=O)Nc1cncc(-c2ccc3[nH]nc(-c4nc5c(-c6ccc(F)s6)ccnc5[nH]4)c3c2)c1 [Compound 340, N-(5-(3-(7-(5-Fluorothiophen-2-yl)-3H-imidazo[4,5-b]pyridin-2-yl)-1H-indazol-5-yl)pyridin-3-yl)-3-methylbutanamide] |  | 8.31
19 | Fc1cccc(-c2ccnc3[nH]c(-c4n[nH]c5ccc(-c6cncc(OCCN7CCCC7)c6)cc45)nc23)c1 [Compound 1882, 7-(3-Fluorophenyl)-2-(5-(5-(2-(pyrrolidin-1-yl)ethoxy)pyridin-3-yl)-1H-indazol-3-yl)-3H-imidazo[4,5-b]pyridine] |  | 5.38
20 | CN(C)Cc1cncc(-c2cc(F)c3[nH]nc(-c4nc5c(-c6ccsc6)ccnc5[nH]4)c3c2)c1 [Compound 741, 1-(5-(7-Fluoro-3-(7-(thiophen-3-yl)-3H-imidazo[4,5-b]pyridin-2-yl)-1H-indazol-5-yl)pyridin-3-yl)-N,N-dimethylmethanamine] |  | 6.03
